Results on 5 compounds are retold here after US20070049535A1, “PREVENTIVE/REMEDY FOR DIABETIC COMPLICATIONS USING OLIGOPEPTIDE” (priority 2004, published 2007).

Series [1] relates to AGE2 production by glyceraldehyde and bovine serum albumin. As to the kind of experiment: Inhibition of AGE2 production by glyceraldehyde and serum albumin (ELISA with anti-AGE2 polyclonal antibody). To be noted: read-out: IC50 of inhibition of AGE2 production; 10 mM glyceraldehyde, 10 mg/ml bovine serum albumin, phosphate buffer pH 7.4, 37° C., 3 days.
Description: (§1) Three days later, AGE2 concentration of the reaction mixture was measured, and IC50 value of inhibition of AGE2 production by each peptide or amino acid was calculated. The AGE2 measurement was performed by the ELISA method using an anti-AGE2 polyclonal antibody prepared from rabbit, according to a conventional method.
Series [2] has the same test system. The following applies: pH 7.4.
Description: as §1
Series [3] is described as follows: AGE2-producing capability by reaction of oligopeptide with glyceraldehyde (ELISA with anti-AGE2 polyclonal antibody). In kind it is biochemical. To be noted: for AGE2 concentration: 10 mM amino acid or peptide + 100 mM glyceraldehyde, 0.1M phosphate buffer pH 7.4, 37° C., 1 week. The protocol: To 0.1M phosphate buffer (pH 7.4) containing 10 mM of any of Lys, Lys-Lys, Lys-Lys-Lys, and Lys-Lys-Lys-Lys (SEQ ID NO: 1) was added 100 mM glyceraldehyde and the mixture was reacted at 37° C. for 1 week. One week later, the AGE2 concentration of the reaction mixture was measured.

The next series concerns serum AGE2. The series is described as follows: Serum AGE2 concentration reduction in diabetic mouse model (db/db mouse). In kind it is in vivo. The following applies: db/db mice. As to the method:
7-Week-old male db/db mice were randomly divided into 4 groups (3 per group), distilled water, 10 mM Lys-Lys solution, 30 mM Lys-Lys solution, or 100 mM Lys-Lys solution was freely given for 10 days as drinking water, blood samples were collected from the heart, and the serum AGE2 concentration was measured.

Read-outs that look alike come from different tables or passages of the source. Peptide text beside a SMILES is read from it.

`N=C(N)NCCC[C@H](N)C(=O)O` [Arg, reference compound]: the IC50 in series [1] came out at 1900 µM.
With `NCCCC[C@H](NC(=O)[C@@H](N)CCCN=C(N)N)C(=O)O` [Arg-Lys] (H-Arg-Lys-OH), the IC50 in series [2] (bovine, 3 days) was found to be 780 µM.
`NCCCC[C@H](N)C(=O)O` [Lys, reference compound]: the AGE2 concentration in series [3] was found to be 0.47 U/ml. The same compound registered an IC50 in series [2] of 2200 µM.
On to `NCCCC[C@H](NC(=O)[C@H](CCCCN)NC(=O)[C@H](CCCCN)NC(=O)[C@@H](N)CCCCN)C(=O)O` [Lys-Lys-Lys-Lys] (H-KKKK-OH), for which the AGE2 concentration in series [3] turned out to be 14.2 U/ml. For the same compound, the IC50 in series [1] is 620 µM.
As to `NCCCC[C@H](NC(=O)[C@@H](N)CCCCN)C(=O)O` [Lys-Lys], in series [3], the AGE2 concentration was found to be 4.7 U/ml. Moreover, the “AGE2 production capacity relative to Lys alone” value in series [3] (reaction with glyceraldehyde, versus Lys alone) was “about 10 times”. The “serum AGE2 concentration” value in the series with serum AGE2 (10 mM solution as drinking water for 10 days) is 3.5 ± 0.6 U/ml; in the series with serum AGE2 (30 mM solution as drinking water for 10 days), 2.3 ± 0.4 U/ml; with serum AGE2 (100 mM solution as drinking water for 10 days), 1.7 ± 0.2 U/ml. Besides, in the series with serum AGE2 (10-100 mM solution as drinking water for 10 days), the “serum AGE2 concentration, dose dependence” value is “decreased in a manner dependent on the Lys-Lys concentration”. Further, the midpoint of inhibition in series [2] (bovine, 3 days), the IC50, lay at 560 µM.
